Experimental data taken from publication PMC10096453, “One-Pot Synthesis and Evaluation of Antioxidative Stress and Anticancer Properties of an Active Chromone Derivative” (Molecules, 2023).
Read-outs that look alike come from different tables or passages of the source.

Columns and labels:
[1] = MTT cytotoxicity assay, HEK293 cells; assay type: cell-based; conditions: human, HEK293 cells, 100 μM; for viability at 24 h, 100 µM: read-out: % Viability ± SD (at 100 μM) HEK293 24 h; for viability at 48 h, 100 µM: read-out: % Viability ± SD (at 100 μM) HEK293 48 h
Method: (§1) HEK293, HACAT, and HeLa cells were grown in modified Eagles’ minimum essential medium (EMEM, Gibco) with 10% fetal bovine serum (FBS, Gibco), 1% of 100 U/mL streptomycin and 100 U/mL penicillin (Gibco). Cells were seeded in culture flasks and maintained in an incubator at 37 °C in a humidified atmosphere with 5% CO2. After reaching 80–90% of confluence, cells were detached by incubation with 0.25% trypsin-0.2% EDTA (Gibco) for 5 min and plated for experiments.
(§2) This study examined cell cultures of HEK293, HACAT, and HeLa cells. The cytotoxicity of the test samples was carried out by the MTT (3-(4,5-dimethylthiazol-2-yl)-2,5-diphenyltetrazolium bromide) assay. The cells were seeded in 96-well microliter plates (2.0 × 10^4 cells/well). Stock solutions of the test compounds were prepared in DMSO. After 24 h, cells were treated with different concentrations of samples and diluted with media to obtain the final desired concentration. The treated cells were then incubated at 37 °C and 5% CO2 for 24 and 48 h. After incubation, the medium was replaced with 0.05% w/v of MTT solution in PBS and further incubated for 3 h. The solution was then discarded and DMSO was added to dissolve the formed formazan crystals. Each well’s absorbance (A) was measured at 570 nm using a microplate reader (FLUOstar Omega^TM, BMG Labtech, Ortenberg, Germany). All experiments were carried out in triplicate and repeated for at least three experiments.

[2] = DPPH radical scavenging assay; assay type: biochemical; parameters: DPPH517nm % SA ± SD: dose or concentration left out as unconfirmed; conditions: for DPPH517nm % SA ± SD: mean of three measurements; for EC50: read-out: DPPH517nm EC50 ± SD
Source text: (§3) Three in vitro antioxidant assays (DPPH, FRAP, and ABTS) were utilized to evaluate the antioxidant property of the synthesized compounds. The DPPH (α, α-diphenyl-β-picrylhydrazyl) assay is the well-known approach to determine antioxidant activity using a stable free radical DPPH, measure the absorbance change, and calculate the absorbance change in the percentage of scavenging activity. […] For example, the ferric-tripyridyltriazine (Fe^3+-TPTZ, colorless) complex is reduced to ferrous tripyridyltriazine (Fe^2+-TPTZ) at low pH and introduces a blue color with maximum absorption at 593 nm. The change in absorbance is related to antioxidant activity. However, a significant limitation of these in vitro tests is the non-physiological measurement conditions (no enzymatic condition and no transition metal ion chelating activity); therefore, the results obtained may not reflect the antioxidant activity of the source material under the biological conditions that exist in humans and animals. The ABTS assay involves a more drastic radical that is chemically produced. The use of ABTS for antioxidant activity determination of hydrophilic and lipophilic pure compounds has attracted interest due to its solubility in organic and aqueous media and stability in a wide pH range [31].
The DPPH method was followed and modified from a previous study. Trolox was used as a reference. The DPPH stock solution at a concentration of 0.625 mM was prepared in 50% ethanol and kept at 4 °C in the dark. On the day of the experiment, 0.208 mM fresh DPPH working solution was freshly prepared by further diluting with 50% ethanol. […] Each reaction was carried out in a 96-well plate, and 100 μL of test preparation and DPPH solution were added. The 96-well plate was then shaken well for 10 min and kept in the dark at room temperature for 20 min, and the absorbance was recorded at 515–517 nm. According to the method described, delocalization also results in a deep violet color and is quantified as a percentage of scavenging activity. % scavenging activity (SA) = 100 × (Asample − Ablank)/(Acontrol − Ablank)(1) where Acontrol and Asample are the absorbances of the test DPPH without and with a sample, respectively. Ablank is the absorbance of the solvent used. The EC50 values were calculated from the relationship curve of %SA versus sample concentration. The experiment was carried out at least in triplicate.

HeLa cell = assay: MTT anticancer activity assay, HeLa cells; assay type: cell-based
Method: as §1, §2

[3] = ABTS radical cation scavenging assay; assay type: biochemical
Source text: as §3
The ABTS assay was prepared by reaction of 5 mL of a 7 mM aqueous ABTS (2,2′-azino-bis (3-ethylbenzthiazoline-6-sulphonic acid) solution and 2.45 mM potassium persulfate solution (K2S2O8). After preparation and storage in the dark for 16 h, the radical cation solution was further diluted in ethanol to absorb about 0.7 at 734 nm. Trolox and test sample solutions were prepared in stock solution with DMSO and diluted with ethanol. A solution of 100 μL of the sample was mixed with 100 μL of the ABTS reagent in a 96-well plate. The mixture was shaken in a dark place for 10 min and incubated at 37 °C for 20 min, and the absorbance was determined at 734 nm. Absorbance determinations were recorded immediately and not more than 1 h after adding the reagent. The solution without the sample was used as a blank. All the determinations were made in triplicate. The sample’s scavenging percentage was calculated from this equation: scavenging percentage = (Absorbance control − Absorbance sample) × 100/Absorbance control. EC50 values were calculated from the relationship curve of %scavenging versus sample concentration.

[4] = FRAP (ferric reducing antioxidant power) assay; assay type: biochemical; conditions: Trolox equivalent
Source text: as §3
The FRAP assay is a method for assessing antioxidant power. Briefly, the FRAP reagent was prepared from acetate buffer pH 3.6, 10 mM TPTZ solution in 40 mM HCl and 20 mM FeCl3.6 H2O in relative proportions of 10:1:1, v/v, respectively. The FRAP reagent was freshly prepared daily. A solution of 5 μL of the sample (3–300 μM, approx.) was mixed with 180 μL of the FRAP reagent in a 96-well plate. The mixture was shaken in the dark for 10 min and incubated at 37 °C for 20 min, and the absorbance was determined at 593 nm. The solution without the sample was used as a blank. All determinations were made in triplicate. Trolox was used as a standard antioxidant and plot the calibration curve between absorbance and concentration. Quercetin was applied as the reference compound. The FRAP values were calculated by comparing the absorbance change in the test sample and represented in μM of Trolox equivalent per μM of sample.

[5] = MTT cytotoxicity assay, HACAT cells; assay type: cell-based; conditions: human; for viability at 24 h, 100 µM: read-out: % Viability ± SD (at 100 μM) HACAT 24 h; for viability at 48 h, 100 µM: read-out: % Viability ± SD (at 100 μM) HACAT 48 h
Method: as §1, §2

HeLa cells = assay: Cell cycle analysis by flow cytometry; assay type: cell-based; conditions: 24 h, 2f, 2j, quercetin at IC50, paclitaxel 5 μM
Method: The paclitaxel (5 μM) was performed as the positive control.
The treatment of HeLa cells and compounds was the same as in the apoptosis protocol. The cells were harvested for 200 μL and centrifuged at 600× g for 5 min and washed with PBS. The mixing cells were slowly added 200 μL of ice-cold 70% ethanol and incubated for at least 3 h at −20 °C. Cells were centrifuged and washed with PBS. Finally, cells were stained with 200 μL of Muse® cell cycle reagent and incubated at room temperature for 30 min in the dark. The cell was analyzed by flow cytometry (Guava Muse Cell Analyzer, Luminex, Austin, TX, USA).

[6] = Homo sapiens, 24 h, read-out: % Viability ± SD (at 100 μM) HeLa 24 h
[7] = Homo sapiens, 48 h, read-out: % Viability ± SD (at 100 μM) HeLa 48 h

Row | Compound | melting point | IC50 (HeLa cell; 24 h) | IC50 (HeLa cell; Homo sapiens, HeLa, 24 h) | EC50 [2] | EC50 ([3]; read-out: ABTS734nm EC50 ± SD) | viability at 24 h, 100 µM [1] | viability at 48 h, 100 µM [1] | DPPH517nm % SA ± SD [2] | viability at 100 µM (HeLa cell; [6]) | viability at 100 µM (HeLa cell; [7]) | ABTS734nm % Scavenging at 500 µM [3] | FRAP593nm Value ± SD (TE) [4] | viability at 24 h, 100 µM [5] | viability at 48 h, 100 µM [5] | Anticancer activity on cervical cancer cells (HeLa cell; HeLa, 24 h) | Cell cycle phase arrest (HeLa cells) | Cell population in G0/G1 phase (HeLa cells) | Cell population in G2/M phase (HeLa cells) | Cell population in S phase (HeLa cells)
1 | O=C(c1ccccc1)c1c(-c2ccccc2)oc2cccc(O)c2c1=O [2a, 3-Benzoyl-5-hydroxy-2-phenyl-4H-chromen-4-one] | 156 to 158 °C | – | – | – | – | 111 ± 6.37% | 103 ± 6.05% | 2.23 ± 1.99% | 91.9 ± 2.06% | 58.8 ± 2.02% | 10.93 ± 1.44% | 0.02 ± 0.004 µM Trolox/1 µM of Synthesized Compounds | 63.8 ± 3.36% | 88.5 ± 6.86% | – | – | – | – | –
2 | O=C(c1ccccc1)c1c(-c2ccccc2)oc2ccc(O)cc2c1=O [2b, 3-Benzoyl-6-hydroxy-2-phenyl-4H-chromen-4-one] | 201 to 203.5 °C | 95.7 ± 1.16 µM | 95.7 µM | – | – | 105 ± 2.7% | 72.4 ± 8.55% | 5.32 ± 2.43% | 40.9 ± 0.41% | 24.8 ± 1.05% | 35.99 ± 1.32% | 0.02 ± 0.003 µM Trolox/1 µM of Synthesized Compounds | 75.7 ± 3.38% | 74.9 ± 1.55% | contained anticancer activity | – | – | – | –
3 | COc1ccc2oc(-c3ccccc3)c(C(=O)c3ccccc3)c(=O)c2c1 [2c, 3-Benzoyl-6-methoxy-2-phenyl-4H-chromen-4-one] | 194 to 196 °C | – | – | – | – | 72.5 ± 6.46% | 74 ± 1.32% | 5.88 ± 2.65% | 60.67 ± 0.57% | 82.12 ± 0.11% | 13.16 ± 0.78% | 0.07 ± 0.028 µM Trolox/1 µM of Synthesized Compounds | 62.3 ± 3.04% | 60.4 ± 0.73% | – | – | – | – | –
4 | CC(=O)O[C@H]1C(=O)[C@@]2(C)[C@H]([C@H](OC(=O)c3ccccc3)[C@]3(O)C[C@H](OC(=O)[C@H](O)[C@@H](NC(=O)c4ccccc4)c4ccccc4)C(C)=C1C3(C)C)[C@]1(OC(C)=O)CO[C@@H]1C[C@@H]2O [Paclitaxel, paclitaxel, reference compound] | – | – | – | – | – | – | – | – | – | – | – | – | – | – | – | potent phase arrest of G2/M | 5.89 ± 0.18% | 89.12 ± 1.14 % | 4.99 ± 0.96%

Continued, in another order:

Row | melting point | IC50 (HeLa cell; 24 h) | IC50 (HeLa cell; Homo sapiens, HeLa, 24 h) | EC50 [2] | EC50 ([3]; read-out: ABTS734nm EC50 ± SD) | Compound | viability at 24 h, 100 µM [1] | viability at 48 h, 100 µM [1] | DPPH517nm % SA ± SD [2] | viability at 100 µM (HeLa cell; [6]) | viability at 100 µM (HeLa cell; [7]) | ABTS734nm % Scavenging at 500 µM [3] | FRAP593nm Value ± SD (TE) [4] | viability at 24 h, 100 µM [5] | viability at 48 h, 100 µM [5] | Anticancer activity on cervical cancer cells (HeLa cell; HeLa, 24 h) | Cell cycle phase arrest (HeLa cells) | Cell population in G0/G1 phase (HeLa cells) | Cell population in G2/M phase (HeLa cells) | Cell population in S phase (HeLa cells)
5 | 270 to 271 °C | – | 166.9 ± 0.49 µM | > 750 µM | – | O=C(c1ccccc1)c1c(-c2ccccc2)oc2cc(O)ccc2c1=O [2d, 3-Benzoyl-7-hydroxy-2-phenyl-4H-chromen-4-one] | 88.7 ± 1.33% | 87.8 ± 1.8% | 15.85 ± 4.61% | 85.17 ± 0.79% | 42.36 ± 0.09% | 27.59 ± 2.46% | 0.02 ± 0.003 µM Trolox/1 µM of Synthesized Compounds | 77.8 ± 6.93% | 72.5 ± 3.41% | contained anticancer activity | – | – | – | –
6 | 196 to 197 °C | – | 108 ± 4.04 µM | > 750 µM | 158 ± 10.9 µM | O=C(c1ccccc1)c1c(-c2ccccc2)oc2cc(O)cc(O)c2c1=O [2e, 3-Benzoyl-5,7-dihydroxy-2-phenyl-4H-chromen-4-one] | 99.7 ± 2.41% | 93.9 ± 5.34% | 46.30 ± 3.61% | 76 ± 1.52% | 26.5 ± 1.13% | 80.67 ± 0.30% | 0.02 ± 0.002 µM Trolox/1 µM of Synthesized Compounds | 79.7 ± 3.26% | 69.1 ± 3.07% | contained anticancer activity | – | – | – | –
7 | 253 to 254 °C | – | 172.7 ± 1.66 µM | – | – | COc1cccc(C(=O)c2c(-c3cccc(OC)c3)oc3cc(O)ccc3c2=O)c1 [2g, 7-Hydroxy-3-(3-methoxybenzoyl)-2-(3-methoxyphenyl)-4H-chromen-4-one] | 79.1 ± 0.9% | 76.7 ± 1.16% | 18.32 ± 0.40% | – | 46.3 ± 1.14% | 11.52 ± 3.56% | 0.02 ± 0.008 µM Trolox/1 µM of Synthesized Compounds | 81.5 ± 5.17% | 78.4 ± 5.44% | contained anticancer activity | – | – | – | –
8 | 300 to 301 °C | – | – | – | – | COc1ccc(C(=O)c2c(-c3ccc(OC)cc3)oc3cc(O)ccc3c2=O)cc1 [2h, 7-hydroxy-3-(4-methoxybenzoyl)-2-(4-methoxyphenyl)-4H-chromen-4-one] | 77.2 ± 1.93% | 73.1 ± 0.79% | 12.57 ± 6.18% | 84.9 ± 2.55% | 64.2 ± 0.76% | 6.55 ± 4.19% | 0.06 ± 0.024 µM Trolox/1 µM of Synthesized Compounds | 75.2 ± 7.39% | 71.8 ± 3.27% | – | – | – | – | –
